From patent US6716829B2, “Aldosterone antagonist and cyclooxygenase-2 inhibitor combination therapy to prevent or treat inflammation-related cardiovascular disorders” (Pharmacia Corporation, priority 2000, dated 2004) come the findings set out here.

The subject of test [1] is stroke-prone spontaneously hypertensive rats. Briefly: Survival and cerebral injury in stroke-prone spontaneously hypertensive rats. The format is in vivo.
Test [2] concerns angiotensin II infused rats. Briefly: Assay A: urinary electrolyte excretion (urinary Na+/K+ ratio as index for natriuresis). The format is in vivo, Male Wistar rats. As to conditions: 1% NaCl, eplerenone 100 mpk. An excerpt: 24-hours food and fluid intake and urine output measured every day Urine samples collected every day for determination of urinary electrolytes. Electrolyte excretion. The ratio between daily urinary Na^+ excretion and urinary K^+ excretion (U Na^+/K^+ ratio) was used as an index for natriuresis. Urinary Na^+/K^+ ratio was similar in all groups before the start of the treatments, and increased similarly in all animals upon initiation of the high salt diet.

For test [3], the system named is angiotensin II infused, captopril treated stroke prone spontaneously hypertensive rats. Briefly: Histopathological scores for renal injury in angiotensin II infused, captopril treated stroke prone spontaneously hypertensive rats. The format is in vivo. As to conditions: captopril treated stroke prone spontaneously hypertensive rats (FIG. 36).
Test [4] deals with osteopontin. Kind of test: Assay B: serum (circulating) osteopontin levels at 28 days. As to conditions: NaCl 1% drinking rats with aldosterone and eplerenone. The class given is in vivo, Male Sprague Dawley rats. As to the method: (§1) Assay B: In Vivo Aldosterone Infusion Model Male Sprague Dawley rats (n=39; BW=250 g) 2. Aldosterone (0.75 mg/hr, sc via alzet minipump) 2.
In test [5] the test system is IL-6. Briefly: Assay B: IL-6 mRNA expression at 28 days. The format is in vivo, Male Sprague Dawley rats. The following applies: aldosterone infused rats, 28 days (FIG. 46). As to the method: as §1
Test [6] relates to MCP-1. Briefly: Assay B: MCP-1 mRNA expression at 28 days. The following applies: aldosterone infused rats, 28 days (FIG. 46). The class given is in vivo, Male Sprague Dawley rats. Here is the method: as §1
Test [7] concerns angiotensin II infused, captopril treated stroke prone spontaneously hypertensive rats. Briefly: Urinary protein excretion in angiotensin II infused, captopril treated stroke prone spontaneously hypertensive rats. As to conditions: captopril treated stroke prone spontaneously hypertensive rats (FIG. 35). The format is in vivo.
In test [8] the test system is cyclooxygenase-2 (COX-2). Kind of test: Assay C: COX-2 mRNA in heart by TaqMan RT-PCR. The format is in vivo, Male Sprague-Dawley rats. The following applies: for COX-2 (AU): mRNA; for COX-2 mRNA expression: myocardium, aldosterone + salt, 7, 14, 30 days, eplerenone 100 mg/kg/day. Here is the method: The procedure of Assay B was expanded upon in a further study. […] Myocardial tissue from animals in each treatment group was examined after 7, 14, or 30 days of treatment.
Potassium chloride supplementation was added to the saline solution in order to prevent the potential hypokalemia associated with aldosterone excess.
At the time of the surgery, an Alzet 2002 osmotic minipump (Alza Corp., Palo Alto, Calif.) containing either vehicle (9% ethanol/87% propylene glycol/4% dH2O) or 1.0 mg/mL d-aldosterone (Sigma Chemical, St. Louis, Mo.) was inserted subcutaneously at the nape of the neck. Aldosterone was administered at a dose of 0.75 µg/hour. […] Animals were sacrificed from each group (n=8-13) after 7, 14, or 30 days of treatment.
The fluorogenic 5′-nuclease assay (TaqMan PCR) using Applied Biosystems' 7700 Sequence Detection System (Applied Biosystems, Foster City, Calif.) allowed for real time detection/quantitation of a specific gene by monitoring the increase in fluorescence of a gene-specific, dye-labeled oligonucleotide probe. Probes for target and reference genes were labeled at the 5′-end with a 6-carboxyfluorescein (6FAM) reporter dye and at the 3′-end with a 6-carboxy-N,N,N′,N′-tetramethylrhodamine (TAMRA) quencher dye. When the probe was annealed to the target gene, fluorescence of 6FAM was prevented by the close proximity of TAMRA. The exonuclease activity of Taq polymerase released the dyes from the oligonucleotide probe by displacing the probe from the target sequence resulting in fluorescence excitation in direct proportion to the amount of target message present. Data analysis was performed using the Sequence Detection System software from Applied Biosystems.
All primers and probes were designed using Primer Express software supplied with the 7700 Sequence Detection System and synthesized by Applied Biosystems. Standard curves using 5-fold dilutions of total RNA (from 200 ng to 320 pg) were performed to determine the efficiency of each primer/probe set in the TaqMan reaction prior to the analysis of the experimental samples. Primer/probe sets were designed from known sequences of rat genes to be analyzed. All target gene values were normalized to a reference gene, constitutively expressed cyclophilin. Primer/probe set sequences can be found in Table 8.
RNA was extracted from frozen (−80° C.) rat heart tissue using the Totally RNA Isolation Kit (Ambion, Inc., Austin, Tex.). Tissue was crushed using a stainless steel mortar and pestle, which had been chilled to −80° C. and transferred to a dounce homogenizer (Kontes, Vineland, N.J.) containing 3-10 mL cold denaturation buffer. Tissue was homogenized and transferred to a sterile, 15 mL polypropylene centrifuge tube. An equal volume of phenol:chloroform:isoamyl alcohol (25:24:1) was added, samples were shaken vigorously for 1 min, and incubated on ice for at least 15 min. Samples were centrifuged for 30 min at 10,000g. The aqueous phase was removed, 1/10 volume of a sodium acetate solution (3.0 M NaOAc pH 4.5) was added, samples were shaken or inverted for 10 seconds, and acid-phenol (premixed with isoamyl alcohol):chloroform (5:1, Ambion, Inc.) was added at an volume equivalent to the starting sample volume. Samples were shaken vigorously for 1 min, followed by a 15-min incubation on ice, and centrifuged for 30 min at 10,000 g. The aqueous phase removed and placed in a clean polypropylene tube. An equal volume of isopropanol (Sigma, St. Louis, Mo.) was added and the samples were mixed and incubated overnight at −20° C. The samples were centrifuged for 30 min at 10,000 g, the supernatant was removed and the RNA pellet was resuspended in DNAse/RNAse-free water. Samples were frozen at −80° C. for at least 2 hours, thawed on wet ice, and diluted for quantitation.
On the technique in general: Quantitative PCR measures a nucleic acid by following its amplification.

Test [9] deals with COX-2. Kind of test: Assay B: COX-2 mRNA in heart by quantitative RT-PCR (Taqman). The class given is in vivo, Male Sprague Dawley rats. As to the method:
(§2) Assay B: In Vivo Aldosterone Infusion Model Male Sprague Dawley rats (n=39; BW=250 g) 2. Aldosterone ([…], sc via alzet minipump) 2. […] Hearts were harvested and divided by half through a transverse section at the mid-ventricles: The upper half was stored into formalin. The bottom part was snap-frozen in liquid nitrogen for biochemical analysis. Determination of osteopontin and COX-2 was performed by quantitative RT-PCR (Taqman). Osteopontin was also identified in the heart by immunohistochemistry.

The subject of test [10] is osteopontin. Kind of test: Assay B: osteopontin mRNA in heart by quantitative RT-PCR (Taqman). The format is in vivo, Male Sprague Dawley rats. As to the method:
as §2

The test system of test [11] is interstitial collagen. Briefly: Assay B: myocardial fibrosis (interstitial collagen volume fraction, hydroxyproline concentration). The format is in vivo, Male Sprague Dawley rats. The following applies: aldosterone/salt treatment, 4 weeks. Here is the method:
Assay B: In Vivo Aldosterone Infusion Model Male Sprague Dawley rats (n=39; BW=250 g) […] Uni-nephrectomy performed during implantation of mini-pumps 2. Aldosterone ([…], sc via alzet minipump) 2. […] Hearts were stained with hematoxylin&eosin and the collagen specific dye picro-sirius red and were analyzed for determination of interstitial collagen volume fraction and morphologic abnormalities (i.e. necrosis, vascular injury). Hydroxyproline concentration was measured in the frozen hearts.

Where [12] appears, read: group mean, data used for Table 17 (7-day protocol).
Setting [13] is: group mean, data used for Table 18 (14-day protocol).
Setting [14] is: group mean, data used for Table 19 (30-day protocol).
Where [15] appears, read: aldosterone/salt + vehicle vs control.
[16] abbreviates: hearts of aldosterone/salt-treated rats, quantitative RT-PCR, eplerenone 100 mpk.

Several values for one entry are separate records, joined by “and”; a condition that tells them apart may be missing. Identical values can stand only once. Entries after “also recorded” stand apart in the source; their conditions may differ.

On to `COC(=O)[C@@H]1CC2=CC(=O)CC[C@]2(C)[C@@]23O[C@@H]2C[C@@]2(C)[C@@H](CC[C@@]24CCC(=O)O4)[C@H]13` [Eplerenone], for which the Survival entry in test [1] (stroke-prone spontaneously hypertensive rats (FIG. 37)) was “increased survival”. The Cerebral injury entry in test [1] (stroke-prone spontaneously hypertensive rats (FIGS. 37, 38)) was “reduced cerebral injury; also recorded: decrease”. The “Urinary Na+/K+ ratio (diuretic or natriuretic effect)” value in test [2] is given as “did not produce a significant diuretic or natriuretic effect”. For the same molecule, the “Histopathological scores for renal injury” value in [3] is “reduction”. The “Circulating (serum) osteopontin levels” value in test [4] is “marked decrease”. In test [5], the IL-6 expression result was “attenuated”. The MCP-1 expression result in [6] was “attenuated”. The “Increased urinary protein excretion” value in [7] is listed as “inhibition”. The “COX-2 (AU)” value was 1.25 AU in test [8] (setting [12]); 2.02 AU in test [8] (setting [13]); 2.28 AU in [8] (setting [14]); 1.19 AU and 2.85 AU and 0.60 AU (2×) and 1.16 AU and 0.82 AU and 1.86 AU and 0.91 AU in [8] (individual rats, data used for Table 17 (7-day protocol), incl. rat marked * excluded from statistics, listed as Eplerenone + aldosterone + salt); 1.56 AU and 1.04 AU and 0.70 AU and 1.41 AU and 3.78 AU and 1.86 AU and 6.19 AU and 1.87 AU and 0.99 AU and 1.92 AU and 0.86 AU in [8] (individual rats, data used for Table 18 (14-day protocol), incl. rat marked * excluded from statistics, listed as Eplerenone + aldosterone + salt); 2.44 AU and 0.55 AU and 1.97 AU and 3.41 AU and 3.71 AU and 3.04 AU and 2.11 AU and 1.34 AU and 1.92 AU and 12.21 AU in test [8] (individual rats, data used for Table 19 (30-day protocol), incl. rat marked * excluded from statistics, listed as Eplerenone + aldosterone + salt). The “COX-2 mRNA expression” value in test [8] is recorded as “inhibition; also recorded: significantly reduced”.
As to `C[C@]12CCC(=O)C=C1CC[C@@H]1[C@@H]2[C@@H](O)C[C@]2(C=O)[C@@H](C(=O)CO)CC[C@@H]12` [Aldosterone], in test [9] (setting [15]), the “COX-2 mRNA expression increase” value was 3 fold. In addition, the “COX-2 relative mRNA expression” value in test [9] (setting [16]) is 3.7±0.46. Further, in test [10] (setting [15]), the “Osteopontin mRNA upregulation” value was 7 fold. Also, the “Osteopontin relative mRNA expression” value in test [10] (setting [16]) is reported as 12.25±1.7. Also, the “Myocardial fibrosis (interstitial collagen volume fraction, hydroxyproline concentration)” value in test [11] is given as “absence of myocardial fibrosis”. In addition, the “COX-2 (AU)” value was 2.22 AU in test [8] (setting [12]); 4.34 AU in test [8] (setting [13]); 4.53 AU in test [8] (setting [14]); 2.10 AU and 0.70 AU and 2.01 AU and 2.95 AU and 2.05 AU and 1.94 AU and 3.54 AU and 2.45 AU and 0.82 AU in test [8] (individual rats, data used for Table 17 (7-day protocol), incl. rat marked * excluded from statistics, listed as Aldosterone + salt); 7.39 AU and 1.83 AU and 5.80 AU and 2.59 AU and 6.63 AU and 4.18 AU and 3.71 AU and 2.62 AU and 23.34 AU in test [8] (individual rats, data used for Table 18 (14-day protocol), incl. rat marked * excluded from statistics, listed as Aldosterone + salt); 4.26 AU and 4.81 AU and 1.54 AU and 3.10 AU and 5.28 AU and 8.20 AU in [8] (individual rats, data used for Table 19 (30-day protocol), incl. rat marked * excluded from statistics, listed as Aldosterone + salt). In addition, in test [8], the “COX-2 mRNA expression” value is recorded as “significantly increased”.
